The values that follow come from patent publication US20240025903A1, “Bicyclic Compounds and Uses Thereof for the Treatment of Diseases” (Athira Pharma, Inc., priority 2020, published 2024).

The nature of series [1]: Parallel artificial membrane permeability assay (PAMPA). The format is in vitro ADME. The following applies: PBS, room temperature. Put shortly: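 Donor wells held compound at 200 μM in PBS (5 replicates) against PBS acceptor wells, incubated 5 h at room temperature. Donor and acceptor concentrations were read by UV against a 0–200 μM standard curve. Pe and membrane retention were calculated from the stated equations.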

The subject of a further series is HepG2 cells. The experiment in a line: Cytotoxicity assay (LDH release). The format is cell-based. Particulars: 48 hours, 0.1 to 100 μM. Put shortly: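 Cells in EMEM+10% FBS treated 48 h at 37° C with compounds at 0.1-100 μM; cerivastatin 0.5 μM served as positive control. LDH released into supernatant measured colorimetrically at 490 nm, range set by untreated and full-lysis controls; >20% above negative control counted as cytotoxic.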

The nature of series [2]: In vitro stability in rat plasma. The format is in vitro ADME. Particulars: 5 μM, 37° C. How it is done: (§1) Bioavailability can be estimated by compound stability when exposed to conditions in the body. As an initial assessment of stability properties in a variety of conditions present in animals, exemplary compounds were tested for stability in a battery of simulated body compartments. Compounds were tested for stability in the following solutions: simulated gastric fluid (SGF: 34.2 mM NaCl, pH 1.2), simulated gastric fluid with the digestive enzyme pepsin (SGF+Enzyme: SGF with 3.2 mg/ml pepsin), simulated intestinal fluid with the mixture of enzymes in porcine pancreatin (SIF+Enzyme: 28.7 mM NaH2PO4, 105.7 mM NaCl, pH 6.8, 10 mg/ml pancreatin), rat plasma, and human plasma.
(§2) Test compounds were incubated at a final concentration of 5 μM in the above solutions at 37° C. with samples removed at the following time points: 0, 1, 2, and 4 hours. Reactions were stopped and prepared for quantification by addition of excess quench solution containing an internal standard (acetonitrile, 200 ng/mL bucetin). Test compound and internal standard in each sample was quantified by LC-MS/MS, and after internal normalization to bucetin, test compound concentration was expressed as a percentage of concentration at the 0-hour time point. Stability in the relevant test solution was then determined by the percent remaining at the 4-hour time point.

A short description of series [3]: In vitro stability in human plasma. The series is classed as in vitro ADME. Particulars: 5 μM, 37° C. As for the experimental part: as §1, §2
A short description of the next series: In vivo pharmacokinetics. Details: species or system Sprague-Dawley rats. Particulars: both sexes, Sprague-Dawley, rat; for Tmax: plasma; for AUC: dose-corrected plasma AUC; for Cmax: dose-corrected plasma Cmax. How it is done:
Administration of exemplary compounds by selected routes followed by blood collection and compound quantification in plasma was used to determine the pharmacokinetic (PK) profile of the compounds. Compounds were administered to mixed-sex Sprague-Dawley rats of at least 250 grams by dissolving the test compound in DMSO and then diluting the compound into an appropriate vehicle, either saline or saline and poly-ethylene glycol. Dosing was accomplished by either tail vein puncture (IV) or oral gavage (PO), and animals were administered compound according to their weight at 1 mL/kg. At selected intervals following administration (10, 20, 40, 60, 120, and 360 minutes), blood was collected by tail vein blood draw. Whole blood was then processed by centrifugation to produce plasma. Compound content in plasma samples was quantified by LC-MS/MS and compared to an internal standard and standard curves to determine concentration accurately. Plasma concentrations were then averaged for each time point and plotted as a function of time. Area under the curve was calculated by integration of the curve, Cmax was the highest concentration achieved in plasma, and Tmax was determined by the timing of Cmax.

Series [4] in a line: Oral availability calculation. The series is classed as in vivo, Sprague-Dawley rats. Particulars: both sexes, Sprague-Dawley, plasma; rat, dose corrected AUC PO / dose corrected AUC IV x 100. The text has this: Oral bioavailability is critical to developing small molecule therapeutics for oral administration. Calculations of oral bioavailability (% F) are accomplished by comparing in vivo pharmacokinetic data (Example B7) using IV dosing as the maximum possible exposure and determining the exposure rate after PO administration. In these studies, dose corrected AUC from PO administration was divided by dose corrected AUC from IV administration and multiplied by 100 to yield the % F. Results are shown in Table 9.

[5] abbreviates: IV (tail vein), read-out: TMAX IV.
The mark [6] stands for this setting: PO (oral gavage), read-out: TMAX PO.
The mark [7] stands for this setting: IV (tail vein), read-out: AUC IV.
Where [8] appears, read: IV (tail vein), read-out: CMAX IV.
The mark [9] stands for this setting: PO (oral gavage), read-out: AUC PO.
The mark [10] stands for this setting: PO (oral gavage), read-out: CMAX PO.

Structures are written as SMILES. Like-named read-outs stand apart in the source and are kept apart here.

`CCC(C)CN1CC2N(C(=O)c3ccc(C(F)(F)F)c(Cl)c3)CCC(=O)N2C(C)C1=O` (centres unmarked) [Compound 12, 1-(3-chloro-4-(trifluoromethyl)benzoyl)-6-methyl-8-(2-methylbutyl)hexahydro-4H-pyrazino[1,2-a]pyrimidine-4,7(6H)-dione] came in with a Papp at 5 h, 200 µM in series [1] of under 2 ×10⁻⁶ cm/s. Also, the Cytotoxicity entry in the series on HepG2 cells was “++++ (++++ indicates non-toxic at 100 μM)”. In addition, in series [2], the “Rat Plasma (compound remaining after 4 hours)” value is reported as “++++ (++++ indicates 100% compound remaining after 4 hours)”. Further, the “Human Plasma (compound remaining after 4 hours)” value in series [3] is given as “+++ (+++ indicates 80-99% compound remaining after 4 hours)”. In addition, the figures for the Tmax in “In vivo pharmacokinetics” (setting [5]) and in “In vivo pharmacokinetics” (setting [6]) were under 30 min and over 60 min, respectively. The area under the curve (AUC) in the series “In vivo pharmacokinetics” (setting [7]) and in the series “In vivo pharmacokinetics” (setting [9]) was 100 to 999 ng·h/mL throughout. Moreover, the results for the peak concentration (Cmax) in “In vivo pharmacokinetics” (setting [8]) and in the series “In vivo pharmacokinetics” (setting [10]) were 100 to 999 ng/mL and 1 to 100 ng/mL, respectively. The bioavailability in series [4] is 25 to 50%.

For `CC1C(=O)N(CC2CCC2)CC2N(C(=O)c3ccc(OC(F)F)cc3)CCC(=O)N12` (centres unmarked) [Compound 14], the apparent permeability coefficient (Papp) at 5 h, 200 µM in series [1] was over 2 ×10⁻⁶ cm/s. In addition, the Cytotoxicity result with HepG2 cells is “++++ (++++ indicates non-toxic at 100 μM)”. Moreover, the “Rat Plasma (compound remaining after 4 hours)” value in series [2] is “+++ (+++ indicates 80-99% compound remaining after 4 hours)”. In series [3], the “Human Plasma (compound remaining after 4 hours)” value is listed as “+++ (+++ indicates 80-99% compound remaining after 4 hours)”. Moreover, the Tmax is under 30 min in the series “In vivo pharmacokinetics” (setting [5]) and over 60 min in the series “In vivo pharmacokinetics” (setting [6]). Besides, the area under the curve (AUC) in the series “In vivo pharmacokinetics” (setting [7]) and in “In vivo pharmacokinetics” (setting [9]) was 1000 to 3000 ng·h/mL in each case. Besides, the highest concentration (Cmax) in “In vivo pharmacokinetics” (setting [8]) and in “In vivo pharmacokinetics” (setting [10]) was 100 to 999 ng/mL each time. Also, the bioavailability in series [4] is over 50%.

Turning to `CC1C(=O)N(CCC2CCC2)CC2N(C(=O)c3ccc(C(F)(F)F)cc3)CCC(=O)N12` (centres unmarked) [Compound 20], the Papp at 5 h, 200 µM in series [1] is under 2 ×10⁻⁶ cm/s. Besides, the Cytotoxicity result in the series with HepG2 cells is on record as “++++ (++++ indicates non-toxic at 100 μM)”. Further, in series [2], the “Rat Plasma (compound remaining after 4 hours)” value is on record as “++ (++ indicates 40-79% compound remaining after 4 hours)”. In series [3], the “Human Plasma (compound remaining after 4 hours)” value is listed as “+++ (+++ indicates 80-99% compound remaining after 4 hours)”. Also, the time of peak concentration (Tmax) is under 30 min in “In vivo pharmacokinetics” (setting [5]) and over 60 min in “In vivo pharmacokinetics” (setting [6]). Moreover, the AUC in the series “In vivo pharmacokinetics” (setting [7]) and in “In vivo pharmacokinetics” (setting [9]) was 1000 to 3000 ng·h/mL in each case. Also, the Cmax in the series “In vivo pharmacokinetics” (setting [8]) lay within 1000 to 3000 ng/mL; in the series “In vivo pharmacokinetics” (setting [10]) it was 100 to 999 ng/mL. Also, the bioavailability in series [4] is over 50%.

As for `C=CCCN1CC2N(C(=O)c3ccc(C(F)(F)F)cc3)CCC(=O)N2C(C)C1=O` (centres unmarked) [Compound 22], in series [1], the apparent permeability coefficient (Papp) at 5 h, 200 µM was under 2 ×10⁻⁶ cm/s. Besides, the Cytotoxicity result in the series on HepG2 cells was “++++ (++++ indicates non-toxic at 100 μM)”. For the same compound, the “Rat Plasma (compound remaining after 4 hours)” value in series [2] is “+++ (+++ indicates 80-99% compound remaining after 4 hours)”. The “Human Plasma (compound remaining after 4 hours)” value in series [3] is listed as “+++ (+++ indicates 80-99% compound remaining after 4 hours)”. The time to peak (Tmax) was under 30 min in “In vivo pharmacokinetics” (setting [5]) and 30 to 60 min in the series “In vivo pharmacokinetics” (setting [6]). The exposure (AUC) in “In vivo pharmacokinetics” (setting [7]) lay in the range of 1000 to 3000 ng·h/mL; in “In vivo pharmacokinetics” (setting [9]) it was 100 to 999 ng·h/mL. Besides, the Cmax in the series “In vivo pharmacokinetics” (setting [8]) and in “In vivo pharmacokinetics” (setting [10]) was 100 to 999 ng/mL in each case. Further, the bioavailability in series [4] was 25 to 50%.

What is called Papp is a coefficient for how fast a substance crosses the barrier. The low end stands for poor permeation, the high end for ready permeation. Usually Tmax stands for the time at which the peak concentration occurs. A word on the AUC: it is the area under the concentration-time curve, a measure of exposure. As usually defined, the Cmax is the maximum level reached in the sampled fluid or tissue. One may read the bioavailability as the share of a dose that reaches the circulation, judged against a reference dose that is usually intravenous.
